Test results as given in PubChem BioAssay AID2060485 (Molecular Pharmacology Branch, DTP, NCI, 2025).

Tested on: A375 multi-cell spheroids with HUVEC/MSC, viability
Assay: Anticancer human tumor A375 cell line growth inhibition [GQUAD];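 further: spheroids exposed to compounds for seven days before readout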
Conditions: for IC50: curve of first compound; for viability, T/C: stronger effect = lower value
Method in brief: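 Multi-cell-type spheroids of tumor cells with HUVEC and mesenchymal stem cells, treated with drug combinations. Concentrations descend in half-log steps from near clinical Cmax, or from 10 microM where Cmax is unknown; viability read-out.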

[1] = second compound 0.0316 µM, first compound 0.0316 µM
[2] = second compound 0.0316 µM, first compound 0.1 µM
[3] = second compound 0.0316 µM, first compound 0.316 µM
[4] = second compound 0.0316 µM, first compound 1 µM
[5] = second compound 0.0316 µM, first compound 3.16 µM
[6] = second compound 0.0316 µM, first compound 10 µM
[7] = second compound 0.1 µM, first compound 0.0316 µM
[8] = second compound 0.1 µM, first compound 0.1 µM
[9] = second compound 0.1 µM, first compound 0.316 µM
[10] = second compound 0.1 µM, first compound 1 µM
[11] = second compound 0.1 µM, first compound 3.16 µM
[12] = second compound 0.1 µM, first compound 10 µM
[13] = second compound 0.316 µM, first compound 0.0316 µM
[14] = second compound 0.316 µM, first compound 0.1 µM
[15] = second compound 0.316 µM, first compound 0.316 µM
[16] = second compound 0.316 µM, first compound 1 µM
[17] = second compound 0.316 µM, first compound 3.16 µM
[18] = second compound 0.316 µM, first compound 10 µM
[19] = second compound 1 µM, first compound 0.0316 µM
[20] = second compound 1 µM, first compound 0.1 µM
[21] = second compound 1 µM, first compound 0.316 µM
[22] = second compound 1 µM, first compound 1 µM
[23] = second compound 1 µM, first compound 3.16 µM
[24] = second compound 1 µM, first compound 10 µM
[25] = second compound 3.16 µM, first compound 0.0316 µM
[26] = second compound 3.16 µM, first compound 0.1 µM
[27] = second compound 3.16 µM, first compound 0.316 µM
[28] = second compound 3.16 µM, first compound 1 µM
[29] = second compound 3.16 µM, first compound 3.16 µM
[30] = second compound 3.16 µM, first compound 10 µM
[31] = second compound 10 µM, first compound 0.0316 µM
[32] = second compound 10 µM, first compound 0.1 µM
[33] = second compound 10 µM, first compound 0.316 µM
[34] = second compound 10 µM, first compound 1 µM
[35] = second compound 10 µM, first compound 3.16 µM
[36] = second compound 10 µM, first compound 10 µM
[37] = second compound 0.0316 µM, first compound 0.000999 µM
[38] = second compound 0.0316 µM, first compound 0.00316 µM
[39] = second compound 0.0316 µM, first compound 0.00999 µM
[40] = second compound 0.0316 µM, first compound 0.0999 µM
[41] = second compound 0.1 µM, first compound 0.000999 µM
[42] = second compound 0.1 µM, first compound 0.00316 µM
[43] = second compound 0.1 µM, first compound 0.00999 µM
[44] = second compound 0.1 µM, first compound 0.0999 µM
[45] = second compound 0.316 µM, first compound 0.000999 µM
[46] = second compound 0.316 µM, first compound 0.00316 µM
[47] = second compound 0.316 µM, first compound 0.00999 µM
[48] = second compound 0.316 µM, first compound 0.0999 µM
[49] = second compound 1 µM, first compound 0.000999 µM
[50] = second compound 1 µM, first compound 0.00316 µM
[51] = second compound 1 µM, first compound 0.00999 µM
[52] = second compound 1 µM, first compound 0.0999 µM
[53] = second compound 3.16 µM, first compound 0.000999 µM
[54] = second compound 3.16 µM, first compound 0.00316 µM
[55] = second compound 3.16 µM, first compound 0.00999 µM
[56] = second compound 3.16 µM, first compound 0.0999 µM
[57] = second compound 10 µM, first compound 0.000999 µM
[58] = second compound 10 µM, first compound 0.00316 µM
[59] = second compound 10 µM, first compound 0.00999 µM
[60] = second compound 10 µM, first compound 0.0999 µM

## CC1COCCN1c1cc(-c2ccnn2C)c2ccnc(-c3ccn[nH]3)c2n1 (stereo not drawn) + Cc1cnc(CNC(=O)c2c(=O)c3ccc(N4CCCN(C)CC4)nc3n3c2sc2ccccc23)cn1
Second compound 0.0316 µM
  IC50: 0.279 µM
Second compound 0.1 µM
  IC50: 0.0743 µM
Second compound 0.316 µM
  IC50: < 0.0316 µM
Second compound 1 µM
  IC50: < 0.0316 µM
Second compound 3.16 µM
  IC50: < 0.0316 µM
Second compound 10 µM
  IC50: < 0.0316 µM
[1]
  viability, T/C: 102%
[2]
  viability, T/C: 69.3%
[3]
  viability, T/C: 51.9%
[4]
  viability, T/C: 28.3%
[5]
  viability, T/C: 13.8%
[6]
  viability, T/C: 13.9%
[7]
  viability, T/C: 67.5%
[8]
  viability, T/C: 37.5%
[9]
  viability, T/C: 35.9%
[10]
  viability, T/C: 23.3%
[11]
  viability, T/C: 13.7%
[12]
  viability, T/C: 9.98%
[13]
  viability, T/C: 39.5%
[14]
  viability, T/C: 33.8%
[15]
  viability, T/C: 27.6%
[16]
  viability, T/C: 21.7%
[17]
  viability, T/C: 13.9%
[18]
  viability, T/C: 10.4%
[19]
  viability, T/C: 38.2%
[20]
  viability, T/C: 35%
[21]
  viability, T/C: 29.6%
[22]
  viability, T/C: 21.5%
[23]
  viability, T/C: 12.7%
[24]
  viability, T/C: 11.3%
[25]
  viability, T/C: 30.8%
[26]
  viability, T/C: 30.2%
[27]
  viability, T/C: 30.7%
[28]
  viability, T/C: 22.4%
[29]
  viability, T/C: 13.2%
[30]
  viability, T/C: 10%
[31]
  viability, T/C: 26.7%
[32]
  viability, T/C: 27.9%
[33]
  viability, T/C: 24.1%
[34]
  viability, T/C: 16.9%
[35]
  viability, T/C: 13.3%
[36]
  viability, T/C: 9.71%

## C=CCn1c(=O)c2cnc(Nc3ccc(N4CCN(C)CC4)cc3)nc2n1-c1cccc(C(C)(C)O)n1 + Cc1cnc(CNC(=O)c2c(=O)c3ccc(N4CCCN(C)CC4)nc3n3c2sc2ccccc23)cn1
Second compound 0.0316 µM
  IC50: 0.9 µM
Second compound 0.1 µM
  IC50: 0.408 µM
Second compound 0.316 µM
  IC50: 0.0967 µM
Second compound 1 µM
  IC50: < 0.0316 µM
Second compound 3.16 µM
  IC50: < 0.0316 µM
Second compound 10 µM
  IC50: < 0.0316 µM
[1]
  viability, T/C: 93.1%
[2]
  viability, T/C: 95.3%
[3]
  viability, T/C: 81%
[4]
  viability, T/C: 48.3%
[5]
  viability, T/C: 12.3%
[6]
  viability, T/C: 9.5%
[7]
  viability, T/C: 70.2%
[8]
  viability, T/C: 69.7%
[9]
  viability, T/C: 50.6%
[10]
  viability, T/C: 38%
[11]
  viability, T/C: 15.1%
[12]
  viability, T/C: 9.57%
[13]
  viability, T/C: 57.6%
[14]
  viability, T/C: 50.6%
[15]
  viability, T/C: 36.7%
[16]
  viability, T/C: 28.1%
[17]
  viability, T/C: 14.9%
[18]
  viability, T/C: 10.7%
[19]
  viability, T/C: 37.1%
[20]
  viability, T/C: 33.7%
[21]
  viability, T/C: 31.6%
[22]
  viability, T/C: 25.3%
[23]
  viability, T/C: 16.1%
[24]
  viability, T/C: 11.4%
[25]
  viability, T/C: 32%
[26]
  viability, T/C: 33.6%
[27]
  viability, T/C: 27.2%
[28]
  viability, T/C: 25.7%
[29]
  viability, T/C: 17%
[30]
  viability, T/C: 12%
[31]
  viability, T/C: 28.8%
[32]
  viability, T/C: 28.9%
[33]
  viability, T/C: 26.8%
[34]
  viability, T/C: 21.6%
[35]
  viability, T/C: 16.8%
[36]
  viability, T/C: 13.8%

## Cc1[nH]c2ccccc2c1CCNCc1ccc(/C=C/C(=O)NO)cc1 + CN(C)c1ccc(Nc2c3ccc(NC(=O)CCN4CCCC4)cc3nc3cc(NC(=O)CCN4CCCC4)ccc23)cc1
Second compound 0.0316 µM
  IC50: 0.156 µM
Second compound 0.1 µM
  IC50: 0.133 µM
Second compound 0.316 µM
  IC50: 0.127 µM
Second compound 1 µM
  IC50: 0.119 µM
Second compound 3.16 µM
  IC50: 0.106 µM
Second compound 10 µM
  IC50: 0.0977 µM
[37]
  viability, T/C: 111%
[38]
  viability, T/C: 101%
[39]
  viability, T/C: 110%
[1]
  viability, T/C: 122%
[40]
  viability, T/C: 76%
[3]
  viability, T/C: 9.06%
[41]
  viability, T/C: 99.1%
[42]
  viability, T/C: 110%
[43]
  viability, T/C: 124%
[7]
  viability, T/C: 127%
[44]
  viability, T/C: 64%
[9]
  viability, T/C: 7.22%
[45]
  viability, T/C: 107%
[46]
  viability, T/C: 110%
[47]
  viability, T/C: 111%
[13]
  viability, T/C: 114%
[48]
  viability, T/C: 61.5%
[15]
  viability, T/C: 7.25%
[49]
  viability, T/C: 104%
[50]
  viability, T/C: 113%
[51]
  viability, T/C: 116%
[19]
  viability, T/C: 110%
[52]
  viability, T/C: 58%
[21]
  viability, T/C: 5.35%
[53]
  viability, T/C: 98.4%
[54]
  viability, T/C: 106%
[55]
  viability, T/C: 113%
[25]
  viability, T/C: 114%
[56]
  viability, T/C: 52.3%
[27]
  viability, T/C: 5.53%
[57]
  viability, T/C: 111%
[58]
  viability, T/C: 98.7%
[59]
  viability, T/C: 112%
[31]
  viability, T/C: 106%
[60]
  viability, T/C: 48.9%
[33]
  viability, T/C: 3.5%

## Cn1ncnc1[C@H]1c2n[nH]c(=O)c3cc(F)cc(c23)N[C@@H]1c1ccc(F)cc1 + CN(C)c1ccc(Nc2c3ccc(NC(=O)CCN4CCCC4)cc3nc3cc(NC(=O)CCN4CCCC4)ccc23)cc1
Second compound 0.0316 µM
  IC50: > 0.316 µM
Second compound 0.1 µM
  IC50: > 0.316 µM
Second compound 0.316 µM
  IC50: > 0.316 µM
Second compound 1 µM
  IC50: > 0.316 µM
Second compound 3.16 µM
  IC50: > 0.316 µM
Second compound 10 µM
  IC50: > 0.316 µM
[37]
  viability, T/C: 96.8%
[38]
  viability, T/C: 104%
[39]
  viability, T/C: 105%
[1]
  viability, T/C: 104%
[40]
  viability, T/C: 105%
[3]
  viability, T/C: 97.1%
[41]
  viability, T/C: 102%
[42]
  viability, T/C: 102%
[43]
  viability, T/C: 97.2%
[7]
  viability, T/C: 101%
[44]
  viability, T/C: 103%
[9]
  viability, T/C: 84.7%
[45]
  viability, T/C: 115%
[46]
  viability, T/C: 93.6%
[47]
  viability, T/C: 101%
[13]
  viability, T/C: 110%
[48]
  viability, T/C: 107%
[15]
  viability, T/C: 98.8%
[49]
  viability, T/C: 111%
[50]
  viability, T/C: 105%
[51]
  viability, T/C: 101%
[19]
  viability, T/C: 110%
[52]
  viability, T/C: 116%
[21]
  viability, T/C: 110%
[53]
  viability, T/C: 107%
[54]
  viability, T/C: 98%
[55]
  viability, T/C: 99.8%
[25]
  viability, T/C: 105%
[56]
  viability, T/C: 106%
[27]
  viability, T/C: 106%
[57]
  viability, T/C: 98.3%
[58]
  viability, T/C: 97.5%
[59]
  viability, T/C: 97.1%
[31]
  viability, T/C: 107%
[60]
  viability, T/C: 104%
[33]
  viability, T/C: 97.9%
